Results reported in US10821059B2, “Cleansing bars” (priority 2015, dated 2020).

Test: Piroctone olamine as a phenoxyethanol solution
Assay type: physicochemical
Settings: if heated, for example to 80° C.
Description: In some embodiments, piroctone olamine is dissolved in a suitable amount of phenoxyethanol; i.e., all or part of the phenoxyethanol of the composition can be employed as the solvent for the piroctone olamine. Typically, where phenoxyethanol is the solvent for the piroctone olamine pre-mix or pre-solution, the piroctone olamine is present in the pre-mixture or pre-solution in an amount of from 1-30% by weight; for example 5%, 10%, 15%, 20%, 25% or 30% by weight. In such embodiments, the mixture including the piroctone olamine and phenoxyethanol is preferably heated to a temperature of from 50-120° C.; for example from 60-100° C.; for example from 65-80° C.; preferably to effect partial or complete dissolution of the piroctone olamine.
The data above show the feasibility of adding piroctone olamine as a phenoxyethanol solution up to at least 30% w/w during bar soap manufacturing, if heated, for example to 80° C. Furthermore, some piroctone olamine can optionally be supplemented as a solution in a further solvent, such as a fragrance or a fragrance dissolved in a solvent, preferably up to 7.5% at room temperature.

SMILES: Cc1cc(CC(C)CC(C)(C)C)n(O)c(=O)c1.NCCO (stereo not shown) [piroctone olamine]
- piroctone olamine as a phenoxyethanol solution, feasible concentration: at least 30 % w/w
